According to publication PMC5538713, “RORγt and RORα signature genes in human Th17 cells” (PLoS ONE, 2017):
Read-outs that look alike come from different tables or passages of the source.

How the values were obtained:
[1] = biological target: T1, RORα LBD (Homo sapiens, UniProt P35398); test: ThermoFluor binding assay, RORα LBD
T1 construct: made in house; host or cells: E. coli BL21DE3 GOLD, pET24a
T1 sequence (P35398 304-556 isoform P35398-1): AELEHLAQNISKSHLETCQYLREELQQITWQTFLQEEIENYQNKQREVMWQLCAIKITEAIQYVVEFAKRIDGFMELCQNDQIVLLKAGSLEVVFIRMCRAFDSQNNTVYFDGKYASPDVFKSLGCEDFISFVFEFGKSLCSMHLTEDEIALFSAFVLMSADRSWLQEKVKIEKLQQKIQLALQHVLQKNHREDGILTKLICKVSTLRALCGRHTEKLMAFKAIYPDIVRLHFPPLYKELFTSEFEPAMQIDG
Experimental: Recombinant human RORγ, RORα and RORβ LBD proteins were prepared for ThermoFlour binding assay. The nucleotide sequences encoding the ligand binding domains (LBD) of human RORγ (Genbank accession no. NP005051, amino acid 237–497), RORα (Genbank accession no. NP599022, amino acid 304–556), and RORβ (Genbank accession no. NP008845, amino acid 201–452) were PCR-amplified and cloned into pET24a (Novagen) for expression in bacteria. All recombinant proteins contained an additional amino acid sequence of […] at the N-terminal of LBD. After transformation of the bacteria strain BL21DE3 GOLD (Agilent) with the plasmids, 10 to 20 L cultures were grown to 1 OD and recombinant protein expression was induced overnight at 16°C with 0.2mM isopropyl-beta-D-thiogalactopyranoside (IPTG) (Corning). […]. His-tagged proteins were collected with Ni-NTA resin (Qiagen) and purified with a HiTrap Q HP column (GE Life Sciences) eluted with a 40 CV gradient of 50-500mM NaCl.
The ThermoFluor® assay was established to measure the change in protein stability upon binding with compounds. 1-Anilinonaphthalene-8-Sulfonic Acid (1,8-ANS) (Invitrogen) was used as a fluorescent dye to label the test proteins. The assay was performed in polypropylene PCR microplates (TF-0384/k, Abgene) with a final assay of 3 μL reaction mixture per well overlaid with 1 μL silicone oil (Sigma-Aldrich). Assay plates were robotically loaded onto a thermostatically controlled PCR-type thermal block and then heated at a ramp-rate of 1°C/min. Fluorescence emission was initiated by continuous illumination with UV light (LC6, Hamamatsu) via fiber optic with a band-pass filter (380–400 nm) and detected with a CCD camera (Sensys, Roper Scientific) filtered to detect signal of 500 ± 25 nm. Reference wells contained recombinant LBD of RORγt, RORα or RORβ alone, and the assay conditions were as follows: 0.065 mg/mL RORγt LBD, 60 μM 1,8-ANS, 100 mM HEPES pH 7.0, 10 mM NaCl, 2.5 mM GSH, 0.002% Tween- 20; 0.1 mg/mL RORα, 70 μM 1,8-ANS, 25 mM HEPES pH 7.0, 50 mM NaCl, 0.001% Tween-20; 0.08 mg/mL RORβ, 60 μM 1,8-ANS, 50 mM HEPES pH 7.0, 100 mM NaCl, 0.001% Tween-20. All 3 assays were performed in the absence and in the presence of 100 μM co-activator peptide SRC1 ([…], England Peptide custom synthesis). The binding affinity of test compounds was estimated as described previously.

[2] = biological target: T2, H1 (h) (Homo sapiens, UniProt P35367); test: Cerep selectivity panel; format: binding; settings: for inhibition at 10 µM: read-out: % Inhibition at 10µM
T2 construct: purchased Cerep
Experimental: (§1) Supplementary file pone.0181868.s003.docx: S3 Table Selectivity profile of RORγt inverse agonists A, B, C and D. Compounds were evaluated at 1 μM and 10 μM in a panel of assays against 50 receptors, ion channels and transporters (Profile service by Cerep Inc.). (DOCX) Click here for additional data file.
(§2) S3 Table. RORɣt inverse agonists A, B, C and D were evaluated at 1 µM and 10 µM in a panel of assays against 50 receptors, ion channels and transporters (Profile service by Cerep Inc.).

[3] = biological target: T3, BK2 (h) (Homo sapiens, UniProt P30411); test: Cerep selectivity panel; format: binding; settings: for inhibition at 10 µM: read-out: % Inhibition at 10µM; for inhibition at 1 µM: read-out: % Inhibition at 1µM
T3 construct: purchased Cerep
T3 sequence (P30411 1-391): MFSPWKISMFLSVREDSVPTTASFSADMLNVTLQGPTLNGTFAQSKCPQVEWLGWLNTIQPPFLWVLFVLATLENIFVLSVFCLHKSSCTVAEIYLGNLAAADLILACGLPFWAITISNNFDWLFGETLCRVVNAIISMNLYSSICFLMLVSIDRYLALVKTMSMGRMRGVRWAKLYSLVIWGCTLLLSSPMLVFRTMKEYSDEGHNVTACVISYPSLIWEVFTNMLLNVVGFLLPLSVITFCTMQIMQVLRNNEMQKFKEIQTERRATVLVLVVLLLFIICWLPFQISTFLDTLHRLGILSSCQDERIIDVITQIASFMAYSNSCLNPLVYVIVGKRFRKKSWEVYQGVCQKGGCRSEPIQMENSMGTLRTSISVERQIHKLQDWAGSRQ
Experimental: as §1, §2

[4] = biological target: T4, M3 (h) (Homo sapiens, UniProt P20309); test: Cerep selectivity panel; format: binding; settings: for inhibition at 1 µM: read-out: % Inhibition at 1µM; for inhibition at 10 µM: read-out: % Inhibition at 10µM
T4 construct: purchased Cerep
Experimental: as §1, §2

[5] = biological target: T5, MC4 (h) (Homo sapiens, UniProt P32245); test: Cerep selectivity panel; format: binding; settings: for inhibition at 1 µM: read-out: % Inhibition at 1µM; for inhibition at 10 µM: read-out: % Inhibition at 10µM
T5 construct: purchased Cerep
Experimental: as §1, §2

[6] = biological target: T6, ORL1 (h) (Homo sapiens, UniProt P41146); test: Cerep selectivity panel; format: binding; settings: for inhibition at 1 µM: read-out: % Inhibition at 1µM; for inhibition at 10 µM: read-out: % Inhibition at 10µM
T6 construct: purchased Cerep
Experimental: as §1, §2

[7] = biological target: T7, D1 (h) (Homo sapiens, UniProt P21728); test: Cerep selectivity panel; format: binding; settings: for inhibition at 10 µM: read-out: % Inhibition at 10µM; for inhibition at 1 µM: read-out: % Inhibition at 1µM
T7 construct: purchased Cerep
Experimental: as §1, §2

[8] = biological target: T8, NK2 (h) (Homo sapiens, UniProt P21452); test: Cerep selectivity panel; format: binding; settings: for inhibition at 1 µM: read-out: % Inhibition at 1µM; for inhibition at 10 µM: read-out: % Inhibition at 10µM
T8 construct: purchased Cerep
T8 sequence (P21452 1-398): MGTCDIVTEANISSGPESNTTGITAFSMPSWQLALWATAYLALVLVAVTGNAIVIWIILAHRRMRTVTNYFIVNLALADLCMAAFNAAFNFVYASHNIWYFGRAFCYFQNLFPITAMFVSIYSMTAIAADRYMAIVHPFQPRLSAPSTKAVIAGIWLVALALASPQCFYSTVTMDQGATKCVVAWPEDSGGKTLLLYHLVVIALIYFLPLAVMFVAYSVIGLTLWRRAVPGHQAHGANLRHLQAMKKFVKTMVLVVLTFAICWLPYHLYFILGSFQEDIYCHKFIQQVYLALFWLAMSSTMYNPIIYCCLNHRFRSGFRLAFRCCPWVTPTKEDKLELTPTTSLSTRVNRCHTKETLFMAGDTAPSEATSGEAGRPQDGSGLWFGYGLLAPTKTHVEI
Experimental: as §1, §2

[9] = system: human CD4 T cells, IFNγ production; test: Th1 differentiation assay (IFNγ production); format: cell-based; settings: 72 h
[10] = Homo sapiens, CD4+ T, read-out: Th1 Differentiation (IFNγ production) (IC50, nM)
[11] = recombinant human LBD, read-out: ThermoFlour Binding Assay (Kd, nM) RORα

T6 sequence (P41146 whole entry): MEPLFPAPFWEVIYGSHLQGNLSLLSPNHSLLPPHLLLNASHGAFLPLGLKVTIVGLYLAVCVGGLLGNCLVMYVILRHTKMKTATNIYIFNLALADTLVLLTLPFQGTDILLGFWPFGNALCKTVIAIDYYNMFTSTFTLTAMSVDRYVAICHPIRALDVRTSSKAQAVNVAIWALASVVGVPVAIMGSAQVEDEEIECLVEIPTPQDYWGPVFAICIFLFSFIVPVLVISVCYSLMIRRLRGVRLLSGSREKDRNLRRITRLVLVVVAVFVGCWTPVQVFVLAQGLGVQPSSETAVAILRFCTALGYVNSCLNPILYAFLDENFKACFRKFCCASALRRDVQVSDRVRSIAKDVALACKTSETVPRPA
T5 sequence (P32245 whole entry): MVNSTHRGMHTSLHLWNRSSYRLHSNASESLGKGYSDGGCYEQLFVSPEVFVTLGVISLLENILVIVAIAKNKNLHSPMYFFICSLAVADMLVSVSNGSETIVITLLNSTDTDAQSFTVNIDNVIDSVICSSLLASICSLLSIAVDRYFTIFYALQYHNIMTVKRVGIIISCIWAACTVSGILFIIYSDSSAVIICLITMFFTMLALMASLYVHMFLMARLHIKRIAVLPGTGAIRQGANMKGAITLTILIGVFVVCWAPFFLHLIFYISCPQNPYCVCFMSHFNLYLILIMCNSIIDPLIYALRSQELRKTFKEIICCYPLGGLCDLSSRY
T2 sequence (P35367 whole entry): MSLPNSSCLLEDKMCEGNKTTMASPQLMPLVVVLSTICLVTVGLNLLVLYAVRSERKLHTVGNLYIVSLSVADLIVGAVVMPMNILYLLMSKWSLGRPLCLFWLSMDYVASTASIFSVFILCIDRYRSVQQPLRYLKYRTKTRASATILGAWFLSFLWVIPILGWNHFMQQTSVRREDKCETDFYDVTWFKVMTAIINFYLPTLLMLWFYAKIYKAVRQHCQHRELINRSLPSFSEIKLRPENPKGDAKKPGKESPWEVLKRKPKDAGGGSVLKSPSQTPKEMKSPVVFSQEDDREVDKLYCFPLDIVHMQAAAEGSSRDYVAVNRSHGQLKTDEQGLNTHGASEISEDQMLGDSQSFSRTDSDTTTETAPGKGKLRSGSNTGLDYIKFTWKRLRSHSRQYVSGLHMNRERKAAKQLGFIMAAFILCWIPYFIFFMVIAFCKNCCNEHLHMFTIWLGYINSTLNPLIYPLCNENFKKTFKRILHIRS
T4 sequence (P20309 whole entry): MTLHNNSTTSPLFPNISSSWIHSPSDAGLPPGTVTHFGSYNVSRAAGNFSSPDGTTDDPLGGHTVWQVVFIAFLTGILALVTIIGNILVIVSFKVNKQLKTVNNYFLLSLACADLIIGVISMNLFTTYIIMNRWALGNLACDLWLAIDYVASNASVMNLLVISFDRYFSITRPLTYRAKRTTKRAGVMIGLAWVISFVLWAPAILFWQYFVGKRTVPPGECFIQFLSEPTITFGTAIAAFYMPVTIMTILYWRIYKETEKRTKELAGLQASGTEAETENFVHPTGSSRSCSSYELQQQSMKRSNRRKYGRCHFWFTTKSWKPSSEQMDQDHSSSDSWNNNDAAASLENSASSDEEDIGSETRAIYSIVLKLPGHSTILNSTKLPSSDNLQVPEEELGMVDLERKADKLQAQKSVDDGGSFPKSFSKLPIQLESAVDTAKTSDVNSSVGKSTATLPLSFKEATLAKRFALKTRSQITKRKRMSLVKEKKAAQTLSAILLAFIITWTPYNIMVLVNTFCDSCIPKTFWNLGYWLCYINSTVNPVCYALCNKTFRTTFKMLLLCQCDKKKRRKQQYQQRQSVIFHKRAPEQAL
T7 sequence (P21728 whole entry): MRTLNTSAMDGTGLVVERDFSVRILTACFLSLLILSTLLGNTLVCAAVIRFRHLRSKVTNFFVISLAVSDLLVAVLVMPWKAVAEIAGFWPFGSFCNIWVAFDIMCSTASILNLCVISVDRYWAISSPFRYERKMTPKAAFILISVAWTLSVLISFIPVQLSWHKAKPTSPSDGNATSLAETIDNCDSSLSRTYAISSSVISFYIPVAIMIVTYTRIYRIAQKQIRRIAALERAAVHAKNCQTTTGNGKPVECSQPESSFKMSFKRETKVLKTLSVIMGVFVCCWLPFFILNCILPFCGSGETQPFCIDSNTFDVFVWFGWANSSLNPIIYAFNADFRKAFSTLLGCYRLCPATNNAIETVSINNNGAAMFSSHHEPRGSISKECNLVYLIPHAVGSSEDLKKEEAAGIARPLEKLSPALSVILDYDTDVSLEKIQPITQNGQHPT

Row | SMILES | Kd [1] | inhibition at 10 µM [2] | inhibition at 10 µM [3] | inhibition at 1 µM [4] | inhibition at 10 µM [4] | inhibition at 1 µM [5] | inhibition at 10 µM [5] | inhibition at 1 µM [6] | inhibition at 10 µM [7] | inhibition at 1 µM [8] | inhibition at 10 µM [8] | IC50 [9, 10] | Kd [1, 11] | further results
1 | CN(C)c1nc2ccc(C(O)(c3ccncc3)c3cncn3C)cc2c(Cl)c1-c1ccccc1 (stereo not shown) [compound D] | 192 nM | 27% | 10% | 33% | 70% | 3% | 25% | 5% | 40% | 9% | 98% | > 240 nM |  | 
2 | COc1nc2ccc([C@@](O)(c3ccc(C)nc3C)c3cnnn3C)cc2c(Cl)c1Cc1ccc(C(F)(F)F)cc1 [compound A] |  |  |  |  |  |  |  |  |  |  |  |  | 166 nM | inhibition at 10 µM ([2]; H1 (h), 10 µM): 8%; inhibition at 1 µM ([3]; BK2 (h), 1 µM): 6%; inhibition at 10 µM ([4]; M3 (h), 10 µM): 63%; inhibition at 10 µM ([5]; MC4 (h), 10 µM): 9%; inhibition at 1 µM ([6]; ORL1 (h), 1 µM): 1%; inhibition at 10 µM ([6]; ORL1 (h), 10 µM): 10%; inhibition at 1 µM ([7]; D1 (h), 1 µM): 16%; inhibition at 10 µM ([7]; D1 (h), 10 µM): 48%; inhibition at 1 µM ([8]; NK2 (h), 1 µM): 7%; inhibition at 10 µM ([8]; NK2 (h), 10 µM): 41%; IC50 ([9]; human CD4 T cells, 3 days, read-out: Th1 Differentiation (IFNγ production) (IC50)): > 240 nM
3 | COc1nc2ccc([C@](O)(c3ccc(Cl)cc3)c3cncn3C)cc2c(Cl)c1Cc1ccc(-n2cccn2)cc1 [B] | > 19600 nM | 2% | 6% | 1% | 15% |  | 6% | 6% | 29% | 9% | 30% | > 240 nM |  | inhibition at 1 µM [3]: 9%; inhibition at 10 µM [6]: 4%; inhibition at 1 µM [7]: 10%
4 | COc1nc2ccc([C@@](O)(c3ccccc3)C3CCN(C(C)=O)CC3)cc2c(Cl)c1Cc1ccc(-n2cccn2)cc1 [C] |  |  |  | 21% | 19% | 14% |  |  | 11% |  | 19% | > 240 nM | > 70000 nM | inhibition at 1 µM ([2]; read-out: % Inhibition at 1µM): 10%
